Values quoted from earlier work, collected in patent publication US9144554B2, “Topical compositions for use in the prevention and/or treatment of dermatitis” (priority 2011, dated 2015).

Conditions: medicaments used to treat dermatitis

Compound | Toxicity
CN(Cc1cnc2nc(N)nc(N)c2n1)c1ccc(C(=O)N[C@@H](CCC(=O)O)C(=O)O)cc1 [methotrexate] | toxic
ivermectin | toxic
